Test results published in ChEMBL document CHEMBL1275453, “Resistance trends of the Bacteroides fragilis group over a 10-year period, 1997 to 2006, in Madrid, Spain” (2008).
Converted amounts (≈) assume the structure as drawn.

How the values were obtained:
Assay type in all cases: functional
Phocaeicola vulgatus [1] = experiment: Antibacterial activity against Bacteroides vulgatus assessed as percent resistant isolates
Phocaeicola vulgatus [2] = experiment: Antibacterial activity against Bacteroides vulgatus isolate by agar dilution method
Bacteroides fragilis [3] = experiment: Antibacterial activity against Bacteroides fragilis assessed as percent resistant isolates
Bacteroides uniformis [4] = experiment: Antibacterial activity against Bacteroides uniformis isolate by agar dilution method
Bacteroides uniformis [5] = experiment: Antibacterial activity against Bacteroides uniformis assessed as percent resistant isolates by agar dilution method
[6] = tested on: Parabacteroides distasonis; experiment: Antibacterial activity against Bacteroides distasonis isolate by agar dilution method
Bacteroides ovatus [7] = experiment: Antibacterial activity against Bacteroides ovatus isolate by agar dilution method
Bacteroides stercoris [8] = experiment: Antibacterial activity against Bacteroides stercoris isolate by agar dilution method
[9] = tested on: Bacteroides thetaiotaomicron; experiment: Antibacterial activity against Bacteroides thetaiotaomicron isolate by agar dilution method
Parabacteroides merdae [10] = experiment: Antibacterial activity against Bacteroides merdae isolate by agar dilution method
Bacteroides sp. [11] = experiment: Antibacterial activity against Bacteroides spp. isolate by agar dilution method
Bacteroides fragilis [12] = experiment: Antibacterial activity against Bacteroides fragilis assessed as percent resistant isolates by agar dilution method
Bacteroides stercoris [13] = experiment: Antibacterial activity against Bacteroides stercoris assessed as percent resistant isolates by agar dilution method; conditions: pooled result: one value given for 4 cell lines, strains, targets or settings
Phocaeicola vulgatus [14] = experiment: Antibacterial activity against Bacteroides vulgatus assessed as percent resistant isolates by agar dilution method
[15] = tested on: Parabacteroides distasonis; experiment: Antibacterial activity against Bacteroides distasonis assessed as percent resistant isolates by agar dilution method
[16] = tested on: Bacteroides thetaiotaomicron; experiment: Antibacterial activity against Bacteroides thetaiotaomicron assessed as percent resistant isolates by agar dilution method
Bacteroides ovatus [17] = experiment: Antibacterial activity against Bacteroides ovatus assessed as percent resistant isolates by agar dilution method
Bacteroides eggerthii [18] = experiment: Antibacterial activity against Bacteroides eggerthii isolate by agar dilution method
Bacteroides caccae [19] = experiment: Antibacterial activity against Bacteroides caccae assessed as percent resistant isolates by agar dilution method
Bacteroides caccae [20] = experiment: Antibacterial activity against Bacteroides caccae isolate by agar dilution method
Phocaeicola vulgatus [21] = experiment: Antibacterial activity against Bacteroides vulgatus assessed as percent resistant isolates by agar dilution method in presence of clavulanate
Bacteroides uniformis [22] = experiment: Antibacterial activity against Bacteroides uniformis isolate by agar dilution method in presence of clavulanate
Bacteroides fragilis [23] = experiment: Antibacterial activity against Bacteroides fragilis assessed as percent resistant isolates by agar dilution method in presence of clavulanate
Bacteroides fragilis [24] = experiment: Antibacterial activity against Bacteroides fragilis isolate by agar dilution method in presence of clavulanate
Bacteroides uniformis [25] = experiment: Antibacterial activity against Bacteroides uniformis assessed as percent resistant isolates by agar dilution method in presence of clavulanate
Phocaeicola vulgatus [26] = experiment: Antibacterial activity against Bacteroides vulgatus isolate by agar dilution method in presence of clavulanate
[27] = tested on: Bacteroides thetaiotaomicron; experiment: Antibacterial activity against Bacteroides thetaiotaomicron isolate by agar dilution method in presence of clavulanate
Bacteroides ovatus [28] = experiment: Antibacterial activity against Bacteroides ovatus assessed as percent resistant isolates by agar dilution method in presence of clavulanate
Bacteroides sp. [29] = experiment: Antibacterial activity against Bacteroides spp. assessed as percent resistant isolates by agar dilution method in presence of clavulanate; conditions: pooled result: one value given for 4 cell lines, strains, targets or settings
Bacteroides ovatus [30] = experiment: Antibacterial activity against Bacteroides ovatus isolate by agar dilution method in presence of clavulanate
Bacteroides sp. [31] = experiment: Antibacterial activity against Bacteroides spp. isolate by agar dilution method in presence of clavulanate
Parabacteroides merdae [32] = experiment: Antibacterial activity against Bacteroides merdae isolate by agar dilution method in presence of clavulanate
[33] = tested on: Bacteroides thetaiotaomicron; experiment: Antibacterial activity against Bacteroides thetaiotaomicron assessed as percent resistant isolates by agar dilution me in presence of clavulanate thod
[34] = tested on: Parabacteroides distasonis; experiment: Antibacterial activity against Bacteroides distasonis assessed as percent resistant isolates by agar dilution method in presence of clavulanate
Bacteroides caccae [35] = experiment: Antibacterial activity against Bacteroides caccae isolate by agar dilution method in presence of clavulanate
Bacteroides eggerthii [36] = experiment: Antibacterial activity against Bacteroides eggerthii isolate by agar dilution method in presence of clavulanate
Bacteroides caccae [37] = experiment: Antibacterial activity against Bacteroides caccae assessed as percent resistant isolates by agar dilution method in presence of clavulanate
Bacteroides stercoris [38] = experiment: Antibacterial activity against Bacteroides stercoris isolate by agar dilution method in presence of clavulanate
[39] = tested on: Parabacteroides distasonis; experiment: Antibacterial activity against Bacteroides distasonis isolate by agar dilution method in presence of clavulanate

COc1c(N2C[C@@H]3CCCN[C@@H]3C2)c(F)cc2c(=O)c(C(=O)O)cn(C3CC3)c12 [MOXIFLOXACIN]
Activity (Phocaeicola vulgatus [1]): 54.7% | MIC50 (Phocaeicola vulgatus [2]): 2 µg/mL (≈ 4.98 µM) | MIC90 (Phocaeicola vulgatus [2]): 16 µg/mL (≈ 39.9 µM) | Activity (Bacteroides fragilis [3]): 27.3% | MIC50 (Bacteroides uniformis [4]): 2 µg/mL (≈ 4.98 µM) | MIC90 (Bacteroides uniformis [4]): 32 µg/mL (≈ 79.7 µM) | Activity (Bacteroides uniformis [5]): 24.5% | MIC50 [6]: 1 µg/mL (≈ 2.49 µM) | MIC90 [6]: 16 µg/mL (≈ 39.9 µM) | MIC50 (Bacteroides ovatus [7]): 2 µg/mL (≈ 4.98 µM) | MIC90 (Bacteroides ovatus [7]): 32 µg/mL (≈ 79.7 µM) | MIC50 (Bacteroides stercoris [8]): 2 µg/mL (≈ 4.98 µM) | MIC90 (Bacteroides stercoris [8]): 16 µg/mL (≈ 39.9 µM) | MIC50 [9]: 2 µg/mL (≈ 4.98 µM) | MIC90 [9]: 16 µg/mL (≈ 39.9 µM) | MIC50 (Parabacteroides merdae [10]): 2 µg/mL (≈ 4.98 µM) | MIC90 (Parabacteroides merdae [10]): 16 µg/mL (≈ 39.9 µM) | MIC50 (Bacteroides sp. [11]): 2 µg/mL (≈ 4.98 µM) | MIC90 (Bacteroides sp. [11]): 16 µg/mL (≈ 39.9 µM) | Activity (Bacteroides fragilis [12]): 9.7% | Activity (Bacteroides stercoris [13]): 28.3% | Activity (Phocaeicola vulgatus [14]): 17% | Activity [15]: 18.6% | Activity [16]: 17% | Activity (Bacteroides ovatus [17]): 24.4% | MIC50 (Bacteroides eggerthii [18]): 2 µg/mL (≈ 4.98 µM) | MIC90 (Bacteroides eggerthii [18]): 16 µg/mL (≈ 39.9 µM) | Activity (Bacteroides caccae [19]): 22.2% | MIC50 (Bacteroides caccae [20]): 2 µg/mL (≈ 4.98 µM) | MIC90 (Bacteroides caccae [20]): 32 µg/mL (≈ 79.7 µM)

CC1(C)S[C@@H]2[C@H](NC(=O)[C@H](N)c3ccc(O)cc3)C(=O)N2[C@H]1C(=O)O [AMOXICILLIN]
Activity (Phocaeicola vulgatus [21]): 21.3% | MIC50 (Bacteroides uniformis [22]): 1 µg/mL | MIC90 (Bacteroides uniformis [22]): 16 µg/mL | Activity (Bacteroides fragilis [23]): 6.2% | MIC50 (Bacteroides fragilis [24]): 1 µg/mL | MIC90 (Bacteroides fragilis [24]): 8 µg/mL | Activity (Bacteroides uniformis [25]): 12.3% | MIC50 (Phocaeicola vulgatus [26]): 2 µg/mL | MIC90 (Phocaeicola vulgatus [26]): 16 µg/mL | MIC50 [27]: 2 µg/mL | MIC90 [27]: 16 µg/mL | Activity (Bacteroides ovatus [28]): 17.1% | Activity (Bacteroides sp. [29]): 19.6% | MIC50 (Bacteroides ovatus [30]): 1 µg/mL | MIC90 (Bacteroides ovatus [30]): 16 µg/mL | MIC50 (Bacteroides sp. [31]): 2 µg/mL | MIC90 (Bacteroides sp. [31]): 16 µg/mL | MIC50 (Parabacteroides merdae [32]): 2 µg/mL | MIC90 (Parabacteroides merdae [32]): 16 µg/mL | Activity [33]: 4.9% | Activity [34]: 16.3% | MIC50 (Bacteroides caccae [35]): 2 µg/mL | MIC90 (Bacteroides caccae [35]): 16 µg/mL | MIC50 (Bacteroides eggerthii [36]): 2 µg/mL | MIC90 (Bacteroides eggerthii [36]): 16 µg/mL | Activity (Bacteroides caccae [37]): 20% | MIC50 (Bacteroides stercoris [38]): 2 µg/mL | MIC90 (Bacteroides stercoris [38]): 16 µg/mL | MIC50 [39]: 4 µg/mL | MIC90 [39]: 16 µg/mL
